Reference: ChEMBL document CHEMBL1141239, “New series of potent delta-opioid antagonists containing the H-Dmt-Tic-NH-hexyl-NH-R motif” (Bioorg Med Chem Lett, 2005)
Square brackets hold non-standard residues; d marks the D form. Peptide text beside a SMILES is read from it. Dmt = Cc1cc(O)cc(C)c1C[C@H](N)C(=O)O; Tic = O=C(O)[C@@H]1Cc2ccccc2CN1

What was measured:
[1] = target: T1, Delta-type opioid receptor (Mus musculus, UniProt P32300); test: Displacement of deltorphin-II from delta opioid receptor in mouse vas deferens; type: functional; conditions: read-out: pA2 (converted)
[2] = target: Delta-type opioid receptor (Rattus norvegicus, UniProt P33533); test: Displacement of [3H]deltorphin II from delta opioid receptor in rat brain membrane; type: cell membranes
[3] = target: Mu-type opioid receptor (Rattus norvegicus, UniProt P33535); test: Displacement of [3H]DAMGO from mu opioid receptor in rat brain membrane; type: cell membranes
[4] = target: Opioid receptors; mu & delta (Rattus norvegicus) (UniProt P33533+P33535); test: Selectivity ratio of rat delta opioid receptor over rat mu opioid receptor; type: protein assay
[5] = target: T1, Delta-type opioid receptor; test: Agonistic activity at delta opioid receptor in mouse vas deferens; type: functional, tissue-based
[6] = target: Mu-type opioid receptor (Cavia porcellus, UniProt P97266); test: Agonistic activity against mu opioid receptor in guinea-pig ileum; type: functional, tissue-based
Sequence of Mu-type opioid receptor (Cavia porcellus, UniProt P97266) (P97266 whole entry): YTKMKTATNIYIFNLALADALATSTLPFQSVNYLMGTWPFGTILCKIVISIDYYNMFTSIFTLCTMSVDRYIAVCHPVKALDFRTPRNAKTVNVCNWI

T1 sequence (P32300 whole entry): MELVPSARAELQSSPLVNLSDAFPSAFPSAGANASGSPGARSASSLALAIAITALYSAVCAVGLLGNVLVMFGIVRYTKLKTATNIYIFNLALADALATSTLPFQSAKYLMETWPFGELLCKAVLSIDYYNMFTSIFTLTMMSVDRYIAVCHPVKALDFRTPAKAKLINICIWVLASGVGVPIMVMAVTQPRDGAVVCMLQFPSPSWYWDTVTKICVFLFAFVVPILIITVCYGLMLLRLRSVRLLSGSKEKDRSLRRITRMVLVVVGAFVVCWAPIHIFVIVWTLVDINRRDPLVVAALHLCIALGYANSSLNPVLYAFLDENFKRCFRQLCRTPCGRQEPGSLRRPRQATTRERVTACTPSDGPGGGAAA
Sequence of Mu-type opioid receptor (Rattus norvegicus, UniProt P33535) (P33535 whole entry): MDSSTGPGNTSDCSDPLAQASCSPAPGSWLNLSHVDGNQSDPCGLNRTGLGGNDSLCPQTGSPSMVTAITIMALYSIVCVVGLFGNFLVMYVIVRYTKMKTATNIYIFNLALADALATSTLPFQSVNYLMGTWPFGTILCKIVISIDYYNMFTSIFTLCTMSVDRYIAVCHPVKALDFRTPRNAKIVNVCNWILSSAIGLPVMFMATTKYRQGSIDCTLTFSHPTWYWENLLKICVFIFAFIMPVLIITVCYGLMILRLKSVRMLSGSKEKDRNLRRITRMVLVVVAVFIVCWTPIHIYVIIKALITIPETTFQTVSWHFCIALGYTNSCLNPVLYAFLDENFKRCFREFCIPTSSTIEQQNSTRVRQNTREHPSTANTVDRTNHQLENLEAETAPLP
Sequence of Delta-type opioid receptor (Rattus norvegicus, UniProt P33533) (P33533 whole entry): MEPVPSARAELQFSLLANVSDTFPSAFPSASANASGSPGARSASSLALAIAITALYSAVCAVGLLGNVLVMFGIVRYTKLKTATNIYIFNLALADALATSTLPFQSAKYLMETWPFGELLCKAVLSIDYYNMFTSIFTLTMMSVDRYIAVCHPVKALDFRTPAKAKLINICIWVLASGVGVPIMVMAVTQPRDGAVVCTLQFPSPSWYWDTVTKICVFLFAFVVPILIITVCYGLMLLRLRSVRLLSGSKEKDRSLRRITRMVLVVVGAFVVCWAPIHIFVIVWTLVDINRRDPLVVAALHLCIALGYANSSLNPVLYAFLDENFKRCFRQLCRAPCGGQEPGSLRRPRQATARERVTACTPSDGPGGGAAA
Sequence of Opioid receptors; mu & delta (Rattus norvegicus) (P33533 whole entry, looked up): as the sequence (P33533 whole entry) above
Sequence of Opioid receptors; mu & delta (Rattus norvegicus) (P33535 whole entry, looked up): as the sequence (P33535 whole entry) above

SMILES	Kb [1]	Ki [2]	Ki [3]	Ratio Ki [4]	IC50 [5]	IC50 [6]
Cc1cc(O)cc(C)c1C[C@H](N)C(=O)N1Cc2ccccc2C[C@H]1C(=O)O (H-[Dmt]-[Tic]-OH)	3.16 nM					
Cc1cc(O)cc(C)c1C[C@H](N)C(=O)NCCCCCCNC(=O)C1Cc2ccccc2CN1C(=O)[C@@H](N)Cc1c(C)cc(O)cc1C (some centres undefined)	0.0631 nM	0.23 nM	0.38 nM	2	> 10000 nM	5900 nM
Cc1cc(O)cc(C)c1C[C@H](N)C(=O)N1Cc2ccccc2CC1C(=O)NCCCCCCNC(=O)[C@@H](N)Cc1ccccc1 (some centres undefined)	0.0501 nM	0.89 nM	1.91 nM	2	> 10000 nM	5550 nM
Cc1cc(O)cc(C)c1C[C@H](N)C(=O)N1Cc2ccccc2CC1C(=O)NCCCCCCNC(=O)C1Cc2ccccc2CN1 (some centres undefined)	0.0398 nM	0.13 nM	2.81 nM	22	> 10000 nM	1600 nM
